From article PMC12134304, “Exploring novel of 1,2,4-triazolo[4,3-a]quinoxaline sulfonamide regioisomers as anti-diabetic and anti-Alzheimer agents with in-silico molecular docking simulation” (Scientific Reports, 2025)

How the values were obtained:
Assay type in all cases: biochemical
[1] = target: acetylcholinesterase (AChE) (Homo sapiens, UniProt P22303); assay: Ellman's method, single-concentration percent inhibition
α-glucosidase = assay: in vitro enzyme inhibition assay (Pistia-Brueggeman method); details: read-out: The in vitro median inhibitory concentrations (IC50 ± SE) (μM) / Anti-diabetic activity ^a / α-glucosidase
α-amylase = assay: in vitro enzyme inhibition assay (Wickramaratne method); details: read-out: The in vitro median inhibitory concentrations (IC50 ± SE) (μM) / Anti-diabetic activity ^a / α-amylase

Chain of acetylcholinesterase (AChE) (P22303 32-614): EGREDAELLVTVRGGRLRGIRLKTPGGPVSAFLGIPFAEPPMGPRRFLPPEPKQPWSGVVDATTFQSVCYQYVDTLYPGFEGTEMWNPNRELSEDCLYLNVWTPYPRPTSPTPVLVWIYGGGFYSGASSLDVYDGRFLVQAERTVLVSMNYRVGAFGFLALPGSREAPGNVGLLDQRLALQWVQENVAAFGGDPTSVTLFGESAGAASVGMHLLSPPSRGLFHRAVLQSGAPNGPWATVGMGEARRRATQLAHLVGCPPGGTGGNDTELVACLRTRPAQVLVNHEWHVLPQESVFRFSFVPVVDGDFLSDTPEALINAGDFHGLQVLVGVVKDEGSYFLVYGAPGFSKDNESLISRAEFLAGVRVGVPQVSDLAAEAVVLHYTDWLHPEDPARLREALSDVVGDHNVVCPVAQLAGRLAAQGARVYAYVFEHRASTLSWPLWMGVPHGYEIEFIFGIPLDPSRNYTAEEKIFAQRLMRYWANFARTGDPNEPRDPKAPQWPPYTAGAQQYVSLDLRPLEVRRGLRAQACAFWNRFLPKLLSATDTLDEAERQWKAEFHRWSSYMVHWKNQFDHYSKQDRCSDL

| SMILES | The in vitro inhibitory percentage (IP ± SE) of the designed two isomers sulfonamide quinoxaline derivatives at 100 μM / Anti-Alzheimer activity ^a / AChE [1] | IC50 (α-glucosidase) | IC50 (α-amylase) |
| --- | --- | --- | --- |
| Cc1nnc2c(N3CCCC3)nc3cc(S(=O)(=O)N4CCCC4)ccc3n12 [11b, 1-Methyl-4-(pyrrolidin-1-yl)-7-(pyrrolidin-1-ylsulfonyl)-[1,2,4]triazolo[4,3-a]quinoxaline] | 44.78 ± 0.01 |  |  |
| C=CCNc1nnc2c(N3CCCC3)nc3ccc(S(=O)(=O)N4CCCC4)cc3n12 [10a, N-Allyl-4-(pyrrolidin-1-yl)-8-(pyrrolidin-1-ylsulfonyl)-[1,2,4]triazolo[4,3-a]quinoxalin-1-amine] |  | 3.46 ± 0.06 µM | 6.89 ± 0.09 µM |
